Results reported in patent publication US7960427B2, “5-hydroxyindole-3-carboxylate derivatives and uses thereof” (priority 2004, dated 2011).
Converted amounts (≈) assume the structure as drawn.

How the values were obtained:
HBV DNA = test: In vitro anti-HBV activity: replication of HBV DNA in 2.2.15 cells (dot hybridization); format: cell-based, Hepatitis B virus (HBV); conditions: for IC50: Hepatitis B virus, read-out: DNA replication IC50; for DNA replication SI: selectivity index
Description: (§1) All compounds were evaluated for their anti-HBV activities, namely the ability to inhibit the replication of HBV DNA and the production of HBsAg and HBeAg in HBV-infected 2.2.15 cells.
(§2) The samples were dissolved in DMSO for appropriate concentrations, and then each was diluted 3-fold with culture medium. The 2.2.15 cells were planted into 96-well culture plates. […] The culture supernatants and 2.2.15 cells were collected respectively on the 8th plant day. The secretion concentrations of HBsAg and HBeAg in the culture supernatants were measured by RIA on SPRIA Kit for Detection of HBsAg and HBeAg (Beijing North Institute of Biological Technology), and the replication of HBV DNA was measured by dot hybridization with a^32PdCTP (FuRui Biological Technology Ltd., China).

2.2.15 cells = test: Cytotoxicity (TC50) in 2.2.15 cells; format: cell-based
Description: as §1, §2

| Compound | IC50 (HBV DNA) [µg/mL] | DNA replication SI (HBV DNA) | TC50 (2.2.15 cells) [µg/mL] |
| --- | --- | --- | --- |
| CCOC(=O)c1c(C[S+]([O-])c2c(Cl)cccc2Cl)n(C2CC2)c2cc(Br)c(O)c(Cn3ccnc3C)c12 (stereo not drawn) [Example 137, Ethyl 6-bromo-1-cyclopropyl-5-hydroxy-4-[(2-methyl-1-imidazolyl)methyl]-2-[(2,6-dichlorophenyl)sulfinylmethyl]-1H-indole-3-carboxylate] | 35.5 (≈ 56.7 µM) | 4.51 | 160.2 (≈ 256 µM) |
| CCOC(=O)c1c(C[S+]([O-])c2ccc(C)cc2)n(C)c2ccc(O)c(Cn3ccnc3C)c12 (stereo not drawn) [Example 142, Ethyl 5-hydroxy-1-methyl-4-[(2-methyl-1-imidazolyl)methyl]-2-[(4-methylphenyl)sulfinylmethyl]-1H-indole-3-carboxylate] | 23.8 (≈ 51.1 µM) | 4.49 | 106.83 (≈ 229 µM) |
| CCOC(=O)c1c(C[S+]([O-])c2ccccc2)n(C)c2cc(Br)c(O)c(Cn3cncn3)c12 (stereo not drawn) [Example 146, Ethyl 6-bromo-5-hydroxy-1-methyl-4-[(1H-1,2,4-triazol-1-yl)methyl]-2-(phenylsulfinylmethyl)-1H-indole-3-carboxylate] | 13.1 (≈ 25.3 µM) | 3.06 | 40.0 (≈ 77.3 µM) |
| CCOC(=O)c1c(C[S+]([O-])c2ccccc2OC)n(C)c2cc(Br)c(O)c(CNC(=N)N)c12.Cl (stereo not drawn) [Example 151, Ethyl 6-bromo-4-(guanidinylmethyl)-5-hydroxy-1-methyl-2-[(2-methoxyphenyl)-sulfinylmethyl]-1H-indole-3-carboxylate hydrochloride] | 1.8 | 35.6 | 64.15 |
| CCOC(=O)c1c(C[S+]([O-])c2ccc(C)cc2)n(C)c2cc(Br)c(O)c(CNC(=N)N)c12.Cl (stereo not drawn) [Example 152, Ethyl 6-bromo-4-(guanidinylmethyl)-5-hydroxy-1-methyl-2-[(4-methylphenyl)sulfinylmethyl]-1H-indole-3-carboxylate hydrochloride] | 10.2 | 18.8 | 192.45 |
| CCOC(=O)c1c(CS(=O)(=O)Cc2ccco2)n(C2CC2)c2cc(Br)c(O)c(Cn3ccnc3)c12 [Example 162, Ethyl 6-bromo-1-cyclopropyl-5-hydroxy-4-[(1-imidazolyl)methyl]-2-[(2-furylmethyl)sulfonylmethyl]-1H-indole-3-carboxylate] | 51.7 (≈ 92 µM) | 2.48 | 128.30 (≈ 228 µM) |
| CCOC(=O)c1c(CS(=O)(=O)Cc2ccc(F)cc2)n(C)c2cc(Br)c(O)c(Cn3ccnc3)c12 [Example 163, Ethyl 6-bromo-5-hydroxy-4-[(1-imidazolyl)methyl]-1-methyl-2-[(4-fluorobenzyl)sulfonylmethyl]-1H-indole-3-carboxylate] | 0.68 (≈ 1.2 µM) | 31.45 | 21.39 (≈ 37.9 µM) |
| CCOC(=O)c1c(CS(=O)(=O)c2ccc(C)cc2)n(C)c2ccc(O)c(Cn3ccnc3)c12 [Example 164, Ethyl 5-hydroxy-4-[(1-imidazolyl)methyl]-1-methyl-2-[(4-methylphenyl)sulfonylmethyl]-1H-indole-3-carboxylate] | 2 (≈ 4.28 µM) | 8.9 | 17.7 (≈ 37.9 µM) |
| CCOC(=O)c1c(CS(=O)(=O)Cc2ccccc2F)n(C2CC2)c2cc(Br)c(O)c(Cn3ccnc3C)c12 [Example 165, Ethyl 6-bromo-1-cyclopropyl-5-hydroxy-4-[(2-methyl-1-imidazolyl)methyl]-2-[(2-fluorobenzyl)sulfonylmethyl]-1H-indole-3-carboxylate] | 3.14 (≈ 5.19 µM) | 2.47 | 7.76 (≈ 12.8 µM) |
| CCOC(=O)c1c(CS(=O)(=O)c2ccccc2)n(C)c2cc(Br)c(O)c(Cn3ccnc3C)c12 [Example 166, Ethyl 6-bromo-5-hydroxy-1-methyl-4-[(2-methyl-1-imidazolyl)methyl]-2-(phenylsulfonylmethyl)-1H-indole-3-carboxylate] | 7.53 (≈ 13.8 µM) | 7.09 | 53.42 (≈ 97.8 µM) |
